In US9683025B2, “Methods and compositions for treating cancer and inflammatory diseases” (The Regents of the University of Colorado, A Body Corporate, priority 2013, dated 2017):
Where two headings read alike, the source gives them in different places. Where a SMILES comes first, the peptide text is derived from it. Where no end group is shown, it is not given here.

Legend:
CtBP-E1A interaction = CtBP-E1A interaction (Homo sapiens, UniProt Q13363); assay: CtBP-E1A interaction inhibition (AlphaScreen / fluorescence polarization competition assay); assay type: binding
Procedure: The ability of peptides to inhibit CtBP binding can be monitored by two biochemical assays. An AlphaScreen assay (Perkin-Elmer) was developed that is capable of detecting the CtBP-E1A interaction. Purified GST-E1A and 6xHis-CtBP are incubated with glutathione-conjugated donor beads and nickel-chelated acceptor beads respectively. The interaction between CtBP and E1A brings the donor and acceptor beads in close proximity, which produces a fluorescence signal after laser excitation and can be detected using the EnVision plate reader. A peptide that inhibits this interaction will limit the proximity of the beads and thus a loss in fluorescence signal will occur. In addition to the alphascreen, a fluorescence polarization based assay with a fluorescein-labeled 14mer E1A peptide ([…] (SEQ ID NO: 1)) was also developed. Purified 6xHis-CtBP is incubated with the fluorescein-labeled E1A peptide and changes in the polarization value of the labeled peptide are detected using the EnVision plate reader. A decrease in peptide binding to CtBP can be detected by an […], and used to monitor peptide inhibition. IC50 values of designed peptides can be determined using either of these assays through the addition of increasing amounts in each well and monitoring the degree of inhibition of the CtBP-E1A interaction.
Multiple amino acid sequences may appear at positions outside the conserved peptide motif. The most frequently occurring amino acids in these positions are used to design the peptides that bind CtBP with the highest affinity. The affinity of these new peptides is compared to the original 14mer E1A peptide (SEQ ID NO:1) by comparing the IC50 of these peptides in inhibiting the CtBP/E1A protein interaction in a competition assay. The peptide identified from phage display that competes with the CtBP/E1A protein interaction better than the original 14mer E1A peptide is selected and conjugated to the cell penetrating peptide of the present invention. Also provided in Table 3 are […] for selected peptides.
The ability of peptides to inhibit CtBP binding can be monitored by two biochemical assays. An AlphaScreen assay (Perkin-Elmer) was developed that is capable of detecting the CtBP-E1A interaction. Purified GST-E1A and 6xHis-CtBP are incubated with glutathione-conjugated donor beads and nickel-chelated acceptor beads respectively. The interaction between CtBP and E1A brings the donor and acceptor beads in close proximity, which produces a fluorescence signal after laser excitation and can be detected using the EnVision plate reader. A peptide that inhibits this interaction will limit the proximity of the beads and thus a loss in fluorescence signal will occur. In addition to the alphascreen, a fluorescence polarization based assay with a fluorescein-labeled 14mer E1A peptide ([…] (SEQ ID NO: 1)) was also developed. Purified 6xHis-CtBP is incubated with the fluorescein-labeled E1A peptide and changes in the polarization value of the labeled peptide are detected using the EnVision plate reader. A decrease in peptide binding to CtBP can be detected by an […], and used to monitor peptide inhibition. IC50 values of designed peptides can be determined using either of these assays through the addition of increasing amounts in each well and monitoring the degree of inhibition of the CtBP-E1A interaction. Also provided in Table 4 are IC50 for selected peptides.

CtBP [1] = target: T1, CtBP (Homo sapiens, UniProt Q13363); assay: Fluorescence polarization competition of unlabeled peptide with FITC-labeled 14mer peptide; assay type: binding
T1 construct: 6xHis
Procedure: (§1) Additional peptides were tested for in vitro inhibitory potency (Table 5). For Kd determination, FITC-labeled peptide (FITC-peptide) was incubated with varying concentrations of CtBP. The fluorescence polarization values of the FITC-peptide were measured and plotted against CtBP concentration to determine Kd of the FITC-peptide with CtBP using the Prism program. […] For IC50 determination, a fluorescence polarization assay was utilized. […] Increasing concentrations of unlabeled peptide were added to compete with the FITC-labeled peptide, leading to a decreased fluorescence polarization value.

CtBP [2] = target: T1, CtBP; assay: Fluorescence polarization Kd determination of FITC-peptide with CtBP; assay type: binding; details: read-out: Kd
Procedure: as §1

[3] = tested on: IMQ-based psoriasis model; assay: IMQ-based psoriasis model; assay type: in vivo, mouse; details: treated mice versus PBS control
Procedure: To elucidate the molecular mechanisms for the Pep1-E1A blocker, H&E and immunostaining for proliferative and inflammatory markers was performed.

[4] = IC50 value, Table 3, inhibition of CtBP/E1A protein interaction

Compound: CC(C)C[C@H](NC(=O)[C@H](CC(=O)O)NC(=O)[C@H](CC(C)C)NC(=O)[C@@H]1CCCN1C(=O)[C@H](CCC(N)=O)NC(=O)CNC(=O)[C@@H]1CCCN1C(=O)[C@@H](N)CCC(=O)O)C(=O)N[C@@H](CO)C(=O)N[C@@H](CS)C(=O)N[C@@H](C)C(=O)N[C@@H](CCCNC(=N)N)C(=O)N1CCC[C@H]1C(=O)N[C@@H](CCCNC(=N)N)C(=O)O [Peptide K239A] (H-EPGQPLDLSCARPR-OH; N-terminus and C-terminus assumed)
- IC50 (CtBP-E1A interaction; [4]): 21.9 µM

Compound: CC(C)C[C@H](NC(=O)[C@H](CC(=O)O)NC(=O)[C@H](CC(C)C)NC(=O)[C@@H]1CCCN1C(=O)CNC(=O)[C@H](CC(=O)O)NC(=O)CNC(=O)CN)C(=O)N[C@@H](CS)C(=O)N[C@@H](CS)C(=O)N[C@@H](CCCNC(=N)N)C(=O)N[C@@H](CCCCN)C(=O)N[C@@H](CCCNC(=N)N)C(=O)N1CCC[C@H]1C(=O)O [SEQ ID NO:133] (H-GGDGPLDLCCRKRP-OH; N-terminus and C-terminus assumed)
- IC50 (CtBP [1]): 18.8 µM

Compound: CC(C)C[C@H](NC(=O)[C@H](CC(=O)O)NC(=O)[C@H](CC(C)C)NC(=O)[C@@H]1CCCN1C(=O)[C@H](CCC(N)=O)NC(=O)CNC(=O)[C@@H]1CCCN1C(=O)[C@H](CCC(=O)O)NC(=O)[C@H](CCC(=O)O)NC(=O)[C@H](CC(C)C)NC(=O)[C@H](CCC(N)=O)NC(=O)[C@@H]1CCCN1C(=O)[C@@H]1CCCN1C(=O)[C@H](CCCNC(=N)N)NC(=O)[C@H](CCCNC(=N)N)NC(=O)[C@H](CCCNC(=N)N)NC(=O)[C@H](CCC(N)=O)NC(=O)[C@H](CCCNC(=N)N)NC(=O)[C@H](CCCNC(=N)N)NC(=O)[C@H](CCCCN)NC(=O)[C@H](CCCCN)NC(=O)[C@H](CCCNC(=N)N)NC(=O)CN)C(=O)N[C@@H](CO)C(=O)N[C@@H](CS)C(=O)N[C@@H](CCCCN)C(=O)N[C@@H](CCCNC(=N)N)C(=O)N1CCC[C@H]1C(=O)N[C@@H](CCCNC(=N)N)C(=O)N[C@@H](CC(=O)O)C(=O)N[C@@H](Cc1ccc(O)cc1)C(=O)N[C@@H](CCCCN)C(=O)N[C@@H](CC(=O)O)C(=O)N[C@@H](CC(=O)O)C(=O)N[C@@H](CC(=O)O)C(=O)N[C@@H](CC(=O)O)C(=O)N[C@@H](CCCCN)C(=O)O [Tat-E1A fusion] (H-GRKKRRQRRRPPQLEEPGQPLDLSCKRPRDYKDDDDK-OH; N-terminus and C-terminus assumed)
- IC50 (CtBP-E1A interaction; IC50 of inhibition of the CtBP/E1A interaction, FIG. 3, peptide purified from E. coli): ~7.7 µM
- IC50 (CtBP-E1A interaction; [4]): 1.7 µM

Compound: CC(C)C[C@H](NC(=O)[C@H](CC(=O)O)NC(=O)[C@H](CC(C)C)NC(=O)[C@@H]1CCCN1C(=O)[C@H](CCC(N)=O)NC(=O)CNC(=O)[C@@H]1CCCN1C(=O)[C@@H](N)CCC(=O)O)C(=O)N[C@@H](CO)C(=O)N[C@@H](CS)C(=O)N[C@@H](CCC(N)=O)C(=O)N[C@@H](CCCNC(=N)N)C(=O)N1CCC[C@H]1C(=O)N[C@@H](CCCNC(=N)N)C(=O)O [Peptide K239Q] (H-EPGQPLDLSCQRPR-OH; N-terminus and C-terminus assumed)
- IC50 (CtBP-E1A interaction; [4]): 12 µM

Compound: EQTVPVDLSVARPR [SEQ ID NO:132]
- Kd (CtBP [2]; Table 5, FITC-peptide with CtBP): 2200 nM
- Kd (CtBP [2]; affinity to CtBP1, Example 12): 2200 nM

Compound: KETWWETWWTEWSQPKKKRKVLEEPGQPLDLSCKRPRDYKDDDDK [Pep1-E1A-Flag]
- IC50 (CtBP-E1A interaction; [4]): 26.6 µM

Compound: CC(=O)NCCCC[C@H](NC(=O)[C@H](CS)NC(=O)[C@H](CO)NC(=O)[C@H](CC(C)C)NC(=O)[C@H](CC(=O)O)NC(=O)[C@H](CC(C)C)NC(=O)[C@@H]1CCCN1C(=O)[C@H](CCC(N)=O)NC(=O)CNC(=O)[C@@H]1CCCN1C(=O)[C@@H](N)CCC(=O)O)C(=O)N[C@@H](CCCNC(=N)N)C(=O)N1CCC[C@H]1C(=O)N[C@@H](CCCNC(=N)N)C(=O)O [K239-Acetylated] (H-EPGQPLDLSCK(Ac)RPR-OH; N-terminus and C-terminus assumed)
- IC50 (CtBP-E1A interaction; [4]): 26.6 µM

Compound: EPGQPLSLSCKRPR [SEQ ID NO:135]
- IC50 (CtBP [1]; Table 5, 50% reduction of fluorescence polarization value): did not inhibit CtBP

Compound: CC(C)C[C@H](NC(=O)[C@H](CCC(=O)O)NC(=O)[C@H](CC(=O)O)NC(=O)[C@H](CC(C)C)NC(=O)[C@@H]1CCCN1C(=O)[C@H](CCC(N)=O)NC(=O)CNC(=O)[C@@H]1CCCN1C(=O)[C@H](CCC(=O)O)NC(=O)[C@H](CCC(=O)O)NC(=O)[C@H](CC(C)C)NC(=O)[C@H](CCC(N)=O)NC(=O)[C@@H]1CCCN1C(=O)[C@@H]1CCCN1C(=O)[C@H](CCCNC(=N)N)NC(=O)[C@H](CCCNC(=N)N)NC(=O)[C@H](CCCNC(=N)N)NC(=O)[C@H](CCC(N)=O)NC(=O)[C@H](CCCNC(=N)N)NC(=O)[C@H](CCCNC(=N)N)NC(=O)[C@H](CCCCN)NC(=O)[C@H](CCCCN)NC(=O)[C@H](CCCNC(=N)N)NC(=O)CN)C(=O)N[C@@H](CS)C(=O)N[C@@H](CCCCN)C(=O)N[C@@H](CCCNC(=N)N)C(=O)N1CCC[C@H]1C(=O)N[C@@H](CCCNC(=N)N)C(=O)N[C@@H](CC(=O)O)C(=O)N[C@@H](Cc1ccc(O)cc1)C(=O)N[C@@H](CCCCN)C(=O)N[C@@H](CC(=O)O)C(=O)N[C@@H](CC(=O)O)C(=O)N[C@@H](CC(=O)O)C(=O)N[C@@H](CC(=O)O)C(=O)N[C@@H](CCCCN)C(=O)O [Tat-E1A-Flag (LS-EL)] (H-GRKKRRQRRRPPQLEEPGQPLDELCKRPRDYKDDDDK-OH)
- IC50 (CtBP-E1A interaction; [4]): > 200 µM
- IC50 (CtBP-E1A interaction; IC50 value, Table 4, inhibition of CtBP-E1A interaction): > 200 µM

Compound: CC(C)C[C@H](NC(=O)[C@H](CC(N)=O)NC(=O)[C@H](CC(C)C)NC(=O)[C@@H]1CCCN1C(=O)[C@H](CCC(=O)O)NC(=O)[C@H](CC(=O)O)NC(=O)[C@@H](NC(=O)[C@@H]1CCCN1)[C@@H](C)O)C(=O)N[C@@H](CO)C(=O)N[C@@H](CC(C)C)C(=O)N[C@@H](CCCCN)C(=O)N[C@@H](CCCNC(=N)N)C(=O)N1CCC[C@H]1C(=O)N[C@@H](CCCNC(=N)N)C(=O)O [SEQ ID NO:134] (H-PTDEPLNLSLKRPR-OH; N-terminus and C-terminus assumed)
- IC50 (CtBP [1]): 4.4 µM

Compound: CC(C)C[C@H](NC(=O)[C@H](CC(=O)O)NC(=O)[C@H](CC(C)C)NC(=O)[C@@H]1CCCN1C(=O)[C@H](CCC(N)=O)NC(=O)CNC(=O)[C@@H]1CCCN1C(=O)[C@H](CCC(=O)O)NC(=O)[C@H](CCC(=O)O)NC(=O)[C@H](CC(C)C)NC(=O)[C@H](CCC(N)=O)NC(=O)[C@@H]1CCCN1C(=O)[C@@H]1CCCN1C(=O)[C@H](CCCNC(=N)N)NC(=O)[C@H](CCCNC(=N)N)NC(=O)[C@H](CCCNC(=N)N)NC(=O)[C@H](CCC(N)=O)NC(=O)[C@H](CCCNC(=N)N)NC(=O)[C@H](CCCNC(=N)N)NC(=O)[C@H](CCCCN)NC(=O)[C@H](CCCCN)NC(=O)[C@H](CCCNC(=N)N)NC(=O)CN)C(=O)N[C@@H](CO)C(=O)N[C@@H](CS)C(=O)N[C@@H](CCC(N)=O)C(=O)N[C@@H](CCCNC(=N)N)C(=O)N1CCC[C@H]1C(=O)N[C@@H](CCCNC(=N)N)C(=O)N[C@@H](CC(=O)O)C(=O)N[C@@H](Cc1ccc(O)cc1)C(=O)N[C@@H](CCCCN)C(=O)N[C@@H](CC(=O)O)C(=O)N[C@@H](CC(=O)O)C(=O)N[C@@H](CC(=O)O)C(=O)N[C@@H](CC(=O)O)C(=O)N[C@@H](CCCCN)C(=O)O [Tat-E1A-Flag (K239Q)] (H-GRKKRRQRRRPPQLEEPGQPLDLSCQRPRDYKDDDDK-OH; N-terminus and C-terminus assumed)
- IC50 (CtBP-E1A interaction; [4]): 7.7 µM

Compound: GSHMKETWWETWWTEWSQPKKKRKVLEEPGQPLDLSCQRPRDYKDDDDK [Pep1-E1A-Flag (K239Q) GSHM v.1]
- resistance to IMQ-induction of psoriasis [3]: showed resistance
